According to PMC12118722, “Self-assembled peptide-dye nanostructures for in vivo tumor imaging and photodynamic toxicity” (npj Imaging, 2024):

How the values were obtained:
[1] = system: HEK 293T cells; test: Competitive inhibition flow cytometry with αVβ5 primary antibodies; type: cell-based, human
Protocol: The peptide formulations were further challenged via competitive inhibition flow cytometry studies to confirm their specific interactions with integrin receptors (Fig. 3b, c). In addition to labeling as before, some cells were pre-incubated with αVβ5 primary antibodies before iRGD-BNPs or iRGD-SNPs. […] There was no observable change in fluorescence from the presence of the antibodies for HEK 293-T cells.
300,000 cells were seeded overnight. For the competitive inhibition samples, cell cultures were first treated with αVβ5 mABs ([…]) for 90 min. The cells were then treated with the iRGD-BNPs, iR GD-SNPs, or methylene blue. The cells were detached, collected at 700xG, and the media was decanted while the cells were resuspended in ice cold buffer for flow cytometry using the APC channel.

[2] = methylene blue reference value used for the relative measurement; no reference given; cited from earlier work
Text: The optical and photoacoustic properties of the assemblies were also studied (Fig. 4). When the nanospheres and branched NPs were scanned from 400 to 700 nm for optical absorbance, both adopted a similar peak absorbance to methylene blue at 662 nm. When the peaks were normalized, there was no 614 nm shoulder growth where dimerization typically forms. While the iRGD-BNP maintained methylene blue’s distinct blue color, the iRGD-SNP samples shifted to a slightly greener color. The quantum yield for the branched NPs and the nanospheres relative to methylene blue (52%) were 43% and 31%, respect ...

[3] = Ex vivo biodistribution by methylene blue fluorescence of harvested organs; conditions: ex vivo IVIS fluorescence after euthanasia
Text: The vital organs of the subjects were harvested after euthanasia and analyzed for fluorescence from the methylene blue for biodistribution studies.
After the subject was euthanized, the heart, lungs, liver, spleen, kidneys, and tumor were harvested and rinsed in PBS. The organs were then imaged for fluorescence signal via IVIS Perkin-Elmer Illumination and LivingImage software.

SMILES: CN(C)c1ccc2nc3ccc(=[N+](C)C)cc-3sc2c1 [methylene blue]
- change in fluorescence with αVβ5 antibody pre-incubation [1]: no change in fluorescence increase
- quantum yield of reference [2]: 52%
- fluorescence in vital organs [3]: nonspecific and low fluorescence in all of the vital organs
